The values that follow come from PubChem BioAssay AID624269 (Broad Institute, 2012).

The structures appear in SMILES notation. Active and inactive are the calls of the source. No rule for the calls is given here. Bounds are passed on as bounds.

System in one assay: not listed separately
The assay can be described thus: Quorum LuxO agonist, light production in absence of autoinducers, Vibrio cholerae, confirmatory (AID 624269). To be noted: Vibrio cholerae BH1651 luxOD47E, luciferase light induction, 6 h; at 8 µM (top of the series).
As to `CCCn1nnnc1NCc1ccccc1Cl`, the activation is 0% (inactive).
On the same count and under the same terms, the result for `O=c1ncn(-c2cccc(Cl)c2)c2ccccc12` reads 0% (inactive).

Still in this assay, the particulars now being: Vibrio cholerae BH1651 luxOD47E, luciferase light induction, 6 h; at 35 µM (top of the series).
Take `CCn1nnc(NCc2ccc(C)cc2)n1`: the activation was 0% (inactive).
As to `CCCn1nnnc1NCc1ccc(N(CC)CC)cc1`, the activation is 0% (inactive).
Turning to `CCC(C)NC(=O)Cc1ccc(-c2ccccc2)cc1` (stereo not given), the activation is -33.3% (inactive).
On the same count and under the same terms, the same measure for `Cc1ccc(CC(=O)NC2CCCC2)cc1`: 0% (inactive); for `COc1ccccc1NC(=O)COC(=O)c1cc2c(s1)CCC2`: 0% (inactive); for `CCn1c(CC(=O)Nc2cccc(Cl)c2Cl)nnc1SCCOc1ccc(OC)cc1`: -50% (inactive).
As for `CCCn1nnnc1NCc1ccc(C(C)C)cc1`, the activation was 33.3% (inactive).
As to `Cc1c(Cl)cccc1-n1cnc(=O)c2ccccc21`, the activation was 50% (inactive).
Turning to `COc1ccc(Cl)cc1NC(=O)COC(=O)c1ccc(C)o1`, the activation is 0% (inactive).
Same read-out and setting: the same measure for `CCn1nnnc1NCc1ccc(N2CCCC2)cc1`: 66.7% (inactive); for `CCCn1nnnc1NCc1ccc(N2CCCC2)cc1`: -50% (inactive).
For the molecule `CCOc1ccc(Nc2ccc3nonc3c2[N+](=O)[O-])cc1`, the activation was 0% (inactive).
For the molecule `COc1ccccc1NC(=O)COC(=O)c1oc2ccccc2c1C`, the activation was 0% (inactive).
Still for that read-out and setting: the same measure for `COc1ccccc1NC(=O)COC(=O)c1ccc(C)cc1`: 0% (inactive).

Another assay concerns Vibrio cholerae BH1651 luxOD47E, luciferase light induction, 6 h. The description is as above.
Details: not given
In the case of `O=C(Cc1ccc(-c2ccccc2)cc1)NC1CCCC1`, the AC40 was 239 nM.
With `Cc1ccc(OCCNC(=O)c2cccc(C)c2)cc1`, the AC40 was 312 nM.
Turning to `O=C(Nc1nnc(-c2ccc3c(c2)OCCO3)o1)C1CCCCC1`, the AC40 is 0.865 nM.
On the same count and under the same terms, the same measure for `Cc1ccc2cc3c(NC(=O)c4ccco4)nn(C)c3nc2c1`: > 35000 nM (inactive).
